Patent US20250137054A1, “COMPOSITION AND METHOD FOR EVALUATING RESPONSIVENESS OF EDARAVONE” (MITSUBISHI TANABE PHARMA CORPORATION, priority 2022, published 2025)

What was measured:
[1] = test system: disease model cells (neurons derived from the 1464R cell line forcibly expressing wild-type and mutant TDP-43); assay: RNA-seq gene expression analysis in disease model cells; assay type: cell-based, rat
Description: (§1) Using both vectors (a) and (b), the differentiated cell line in the infection medium was infected with adenovirus at a multiplicity of infection of 50, and cultured for 24 hours. As a result, neurons derived from the 1464R cell line, in which both wild-type and mutant TDP-43 were forcibly expressed intracellularly (hereinafter, also referred to as disease model cells), were obtained.
In the present evaluation, a 6-well plate treated with poly-L-lysine was used, cells were seeded at a density of 1×10^6 cells per well, cultured under the conditions of (1) of Example 1, and differentiated cells were used.
(3) Group 3 (TDP-43+EA exposed group; represented as ‘Group 3’ in FIG. 4 and FIGS. 7-11): After preparing the disease model cells expressing TDP-43, the cells were cultured in differentiation medium free of Eda but containing EA (final concentration 20 μmol/L) for 24 hours. This experimental group forcibly expresses TDP-43 and simulates conditions where the target has a neurodegenerative disease and remains untreated.
(4) Group 4 (TDP-43+EA+Eda exposed group; represented as ‘Group 4’ in FIG. 4 and FIGS. 7-11): After preparing the disease model cells expressing TDP-43, the cells were cultured in differentiation medium containing Eda (final concentration 50 μmol/L) but free of EA for 24 hours. After that, EA (final concentration 20 μmol/L) was further added, and the cells were further cultured for an additional 24 hours. This experimental group simulates conditions where the target with a neurodegenerative disease is administered or exposed to Eda.
After the culture was completed, cell pellets containing 1×10^6 or more cells were obtained from the experimental groups (1)-(4). Total RNA was extracted from these cell pellets using NucleoSpin RNA (manufactured by Macherey-Nagel) according to a product protocol.
Using the extracted total RNA (1.0 ng) as a template, double-stranded cDNA was synthesized using the SMART method using the SMART-Seq v4 Ultra (registered trademark) Low Input RNA Kit for Sequencing (manufactured by Clontech) according to a product protocol.
Next, using the NovaSeq6000 system (NovaSeq6000 S4 reagent kit, NovaSeq Xp4 lane kit, and NovaSeq control software (version 1.6.0); all manufactured by Illumina), sequences of the cDNA library were determined according to a product protocol.
Next, using the DRAGEN Bio-IT platform software (version 3.6.3, manufactured by Illumina) and referring to the rat genome assembly (version 6.0, top-level) and transcript annotation (release 101) obtained from the Ensembl database, types and abundance of genes were identified from the 150-base sequence information contained in the FASTQ files mentioned above.
An RNA expression level (TPM) of a transcription product i measured from the cDNA library of the experimental groups was calculated based on alignment to the rat genome and transcription product annotation from the Ensembl database, according to the following equation (A).
Differential expression analysis was performed using DESeq2 (a package for two-group comparison) in the statistical analysis software R (version 3.6.0) to calculate a log 2 ratio of RNA expression levels and a significance test. The log 2 ratio is a value expressed as “log 2 ([expression level of a first measurement target]/[expression level of a second measurement target]).”
The significance test was performed based on a p-value calculated by Wald test with multiple testing correction based on the Benjamini-Hochberg method (BH method).
In the present analysis, a gene with an absolute log 2 ratio of 1 or more (expression change ratio of 2.0 times or more or 0.50 times or less) and a p-value of 0.01 or less from the Wald test between any two groups was identified as a “gene with a change in expression level” (differentially expressed gene; DEG).
The X-axis represents a first principal component, and the Y-axis represents a second principal component, with their respective contribution rates expressed as percentages. […]

[2] = test system: disease model cells (neurons derived from the 1464R cell line forcibly expressing wild-type and mutant TDP-43); assay: Evaluation of cell protection using chromogenic substrate (Cell Counting Kit-8), with EA; assay type: cell-based, rat; conditions: Eda 1-200 μmol/L 24 h, then EA 20 μmol/L 24 h; vs Comparative Example 1 (FIG. 3)
Description: as §1
After that, a cell toxicity measurement kit (Cell Counting Kit-8, manufactured by DOJINDO) was used to expose the cells in each group according to a product protocol, and an amount of chromogenic substrate produced was measured by absorbance at 450 nm.
With this kit, the more viable cells present, the more chromogenic substrate is produced, resulting in a higher absorbance value at 450 nm. Therefore, a higher absorbance at 450 nm indicates a greater number of viable cells.
The data shown in FIG. 3 are all expressed as mean±standard error of the mean (SEM, n=4 for each). In FIG. 3, the symbol “##” indicates a statistically significant difference of p<0.01 compared to Comparative Example 1 (determined by Student t-test). In FIG. 3, the symbol “*” indicates a statistically significant difference of p<0.05 compared to Comparative Example 1, and the symbol “**” indicates a statistically significant difference of p<0.01 compared to Comparative Example 1 (both determined by Williams' multiple comparison test).

[3] = Group 3 (TDP43 + EA) vs Group 2 (Eda)
[4] = Group 4 (TDP43 + EA + Eda) vs Group 1 (control)
[5] = Group 4 (TDP43 + EA + Eda) vs Group 2 (Eda)
[6] = Group 4 (TDP43 + EA + Eda) vs Group 3 (TDP43 + EA)
[7] = Group 4 (TDP43+EA+Eda 50 μmol/L) vs Group 3 (TDP43+EA), RNA expression
[8] = in the presence of edaravone, TDP-43 mutant protein present

CC1=NN(c2ccccc2)C(=O)C1 [edaravone, 5-methyl-2-phenyl-2,4-dihydro-3H-pyrazol-3-one]
number of downregulated genes (DEGs) [1, 3]: 478
number of upregulated genes (DEGs) [1, 3]: 876
number of downregulated genes (DEGs) [1, 4]: 1,095
number of upregulated genes (DEGs) [1, 4]: 1,654
number of downregulated genes (DEGs) [1, 5]: 1,130
number of upregulated genes (DEGs) [1, 5]: 1,661
number of downregulated genes (DEGs) [1, 6]: 260
number of upregulated genes (DEGs) [1, 6]: 169
gene expression profile (principal component analysis of RNA-seq data) ([1]; Group 4 (TDP43 + EA + Eda) vs Group 3 (TDP43 + EA), FIG. 6): distinctly different gene expression profiles
Group 4 to Group 3 log2 ratio: Acsl6 (acyl-CoA synthetase long-chain family member 6) [1, 7]: −1.582
Group 4 to Group 3 log2 ratio: Cebpb (CCAAT/enhancer binding protein beta) [1, 7]: 1.661
Group 4 to Group 3 log2 ratio: Glrx (glutaredoxin) [1, 7]: −1.262
Group 4 to Group 3 log2 ratio: Ho-1 (hemeoxygenase 1) [1, 7]: 1.755
Group 4 to Group 3 log2 ratio: HspaS (heat shock protein family A (Hsp70) member 8) [1, 7]: 1.151
Group 4 to Group 3 log2 ratio: Hsph1 (heat shock protein family H (Hsp110) member 1) [1, 7]: 1.027
Group 4 to Group 3 log2 ratio: Mt1 (metallothionein 1) [1, 7]: −1.392
Group 4 to Group 3 log2 ratio: Nefl (neurofilament light) [1, 7]: −1.778
Group 4 to Group 3 log2 ratio: Nfe2l2 (nuclear factor, erythroid 2-like 2) [1, 7]: 0.923
Group 4 to Group 3 log2 ratio: Nup43 (nucleoporin 43) [1, 7]: −0.888
Group 4 to Group 3 log2 ratio: Pik3cb [1, 7]: 1.157
Group 4 to Group 3 log2 ratio: Plcg2 (phospholipase C, gamma 2) [1, 7]: 0.881
Group 4 to Group 3 log2 ratio: Plpp3 (phospholipid phosphatase 3) [1, 7]: 1.307
Group 4 to Group 3 log2 ratio: Ptgds (prostaglandin D2 synthase) [1, 7]: 0.954
Group 4 to Group 3 log2 ratio: Sqstm1 (sequestosome 1) [1, 7]: 1.225
Group 4 to Group 3 log2 ratio: Txndc2 (thioredoxin domain containing 2) [1, 7]: 1.153
log 2 ratio Group 4/Group 3: Alpl (ALPL) ([1]; Group 4 (TDP43+EA+Eda 50 μmol/L) vs Group 3 (TDP43+EA), RNA expression, DESeq2): −1.098
expression level of a gene product of ALPL [1, 8]: decreases
expression level of a gene product of ASF1B [1, 8]: decreases
expression level of a gene product of DCTD [1, 8]: decreases
expression level of a gene product of FAIM2 [1, 8]: increases
expression level of a gene product of FCSK [1, 8]: decreases
expression level of a gene product of HAUS4 [1, 8]: decreases
expression level of a gene product of ITGB4 [1, 8]: decreases
expression level of a gene product of KAZALD1 [1, 8]: decreases
expression level of a gene product of MAST1 [1, 8]: decreases
expression level of a gene product of MT2A [1, 8]: decreases
expression level of a gene product of NTM [1, 8]: decreases
expression level of a gene product of PTTG1 [1, 8]: decreases
expression level of a gene product of SBK1 [1, 8]: decreases
expression level of a gene product of SCN2A [1, 8]: decreases
expression level of a gene product of UBE2L6 [1, 8]: decreases
absorbance at 450 nm (number of viable cells) [2]: increased in an Eda concentration-dependent manner
